Assay results from patent US10934283B2, “COMT inhibiting methods and compositions” (LIEBER INSTITUTE FOR BRAIN DEVELOPMENT, priority 2015, dated 2021).
Where a name gives a salt, the structure may show the parent alone.

target: T1, catechol-O-methyltransferase (COMT) (Homo sapiens, UniProt P21964); assay: COMT inhibition assay (HTRF, production of SAH from SAM); type: biochemical; conditions: table does not say MB-COMT or S-COMT
T1 construct: M51A variant) was expressed in HEK 293F cells
T1 sequence (P21964 52-271 limits assumed): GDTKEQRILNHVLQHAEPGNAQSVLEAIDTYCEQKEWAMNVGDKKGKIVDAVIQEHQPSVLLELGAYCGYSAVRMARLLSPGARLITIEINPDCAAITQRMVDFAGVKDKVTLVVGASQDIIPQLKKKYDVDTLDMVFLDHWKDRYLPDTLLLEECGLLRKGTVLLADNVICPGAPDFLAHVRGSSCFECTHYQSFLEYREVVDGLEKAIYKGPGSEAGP
Summary of the method: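 Membranes from HEK293F cells expressing MB-COMT (M51A variant) incubated with 20 μM SAM and 1.5 μM dopamine plus compound (10 concentrations) for 40 min at 37 °C; S-COMT (Val158) at 0.15 ng/well used 100 μM dopamine, 15 min. SAH measured by HTRF against a standard curve; pIC50 from 4-parameter logistic fit.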

**Q.** With COc1ccccc1CN1CCn2cc(O)c(=O)cc2C1 [Example 51, 7-hydroxy-2-(2-methoxybenzyl)-1,2,3,4-tetrahydro-8H-pyrido[1,2-a]pyrazin-8-one] as the molecule, how does the “Activity range (pIC50)” value read?
**A.** ++ (two plus signs (++) is associated with a pIC50 of from about 6 to 7)

**Q.** Which “Activity range (pIC50)” value does the source give for O=c1cc2n(cc1O)CCN(Cc1ccc(OCc3ccccc3)cc1)C2 [Example 52, 2-[4-(benzyloxy)benzyl]-7-hydroxy-1,2,3,4-tetrahydro-8H-pyrido[1,2-a]pyrazin-8-one] here?
**A.** +++ (three plus signs (+++) is associated with a pIC50 of above about 7)

**Q.** O=c1cc2n(cc1O)CCN(Cc1cccc(OCc3ccccc3)c1)C2 [Example 53, 2-[3-(benzyloxy)benzyl]-7-hydroxy-1,2,3,4-tetrahydro-8H-pyrido[1,2-a]pyrazin-8-one] was tested. Which “Activity range (pIC50)” value did it give?
**A.** +++ (three plus signs (+++) is associated with a pIC50 of above about 7)

**Q.** Which “Activity range (pIC50)” value does the source give for O=c1cc2n(cc1O)CCN(Cc1ccc3nsnc3c1)C2 [Example 54, 2-(2,1,3-benzothiadiazol-5-ylmethyl)-7-hydroxy-1,2,3,4-tetrahydro-8H-pyrido[1,2-a]pyrazin-8-one] here?
**A.** ++ (two plus signs (++) is associated with a pIC50 of from about 6 to 7)

**Q.** O=c1cc2n(cc1O)CCN(Cc1ccccc1OCc1ccccc1)C2 [Example 55, 2-[2-(benzyloxy)benzyl]-7-hydroxy-1,2,3,4-tetrahydro-8H-pyrido[1,2-a]pyrazin-8-one] was tested. Which “Activity range (pIC50)” value did it give?
**A.** ++ (two plus signs (++) is associated with a pIC50 of from about 6 to 7)

**Q.** Cc1ccc(-c2nc3sccn3c2CN2CCn3cc(O)c(=O)cc3C2)cc1 [Example 56, 7-hydroxy-2-{[6-(4-methylphenyl)imidazo[2,1-b][1,3]thiazol-5-yl]methyl}-1,2,3,4-tetrahydro-8H-pyrido[1,2-a]pyrazin-8-one] was tested. Which “Activity range (pIC50)” value did it give?
**A.** ++ (two plus signs (++) is associated with a pIC50 of from about 6 to 7)

**Q.** O=c1cc2n(cc1O)CCN(Cc1ccc(Cl)cc1Cl)C2 [Example 57, 7-hydroxy-2-[(2,4-dichlorophenyl)methyl]-1,2,3,4-tetrahydro-8H-pyrido[1,2-a]pyrazin-8-one] was tested. Which “Activity range (pIC50)” value did it give?
**A.** +++ (three plus signs (+++) is associated with a pIC50 of above about 7)

**Q.** Which “Activity range (pIC50)” value does the source give for O=c1cc2n(cc1O)CCN(Cc1ccccc1Cl)C2 [Example 58, 2-[(2-chlorophenyl)methyl]-7-hydroxy-3,4-dihydro-1H-pyrido[1,2-a]pyrazin-8-one] here?
**A.** +++ (three plus signs (+++) is associated with a pIC50 of above about 7)

**Q.** With O=c1cc2n(cc1O)CCN(Cc1c(F)cccc1Cl)C2 [Example 59, 2-[(2-chloro-6-fluoro-phenyl)methyl]-7-hydroxy-3,4-dihydro-1H-pyrido[1,2-a]pyrazin-8-one] as the molecule, how does the “Activity range (pIC50)” value read?
**A.** +++ (three plus signs (+++) is associated with a pIC50 of above about 7)

**Q.** For O=c1cc2n(cc1O)CCN(Cc1c(Cl)cccc1Cl)C2 [Example 60, 2-[(2,6-dichlorophenyl)methyl]-7-hydroxy-3,4-dihydro-1H-pyrido[1,2-a]pyrazin-8-one], which “Activity range (pIC50)” value is on record?
**A.** +++ (three plus signs (+++) is associated with a pIC50 of above about 7)

**Q.** Which “Activity range (pIC50)” value does the source give for O=c1cc2n(cc1O)CCN(Cc1ccc(F)cc1Cl)C2 [Example 61] here?
**A.** +++ (three plus signs (+++) is associated with a pIC50 of above about 7)

**Q.** For O=c1cc2n(cc1O)CCN(Cc1c(F)cccc1F)C2 [Example 62, 2-[(2,6-difluorophenyl)methyl]-7-hydroxy-3,4-dihydro-1H-pyrido[1,2-a]pyrazin-8-one], which “Activity range (pIC50)” value is on record?
**A.** +++ (three plus signs (+++) is associated with a pIC50 of above about 7)

**Q.** O=c1cc2n(cc1O)CCN(Cc1ccc(Br)cc1Cl)C2 [Example 63, 2-[(4-bromo-2-chloro-phenyl)methyl]-7-hydroxy-3,4-dihydro-1H-pyrido[1,2-a]pyrazin-8-one hydrochloride] was tested. Which “Activity range (pIC50)” value did it give?
**A.** +++ (three plus signs (+++) is associated with a pIC50 of above about 7)

**Q.** For O=c1cc2n(cc1O)CCN(Cc1ccc(C3CC3)cc1Cl)C2 [Example 64, 2-[(2-chloro-4-cyclopropyl-phenyl)methyl]-7-hydroxy-3,4-dihydro-1H-pyrido[1,2-a]pyrazin-8-one hydrochloride], which “Activity range (pIC50)” value is on record?
**A.** +++ (three plus signs (+++) is associated with a pIC50 of above about 7)

**Q.** With CC1(C)Cn2cc(O)c(=O)cc2CN1Cc1ccccc1Cl [Example 65, 2-[(2-chlorophenyl)methyl]-7-hydroxy-3,3-dimethyl-1,4-dihydropyrido[1,2-a]pyrazin-8-one] as the molecule, how does the “Activity range (pIC50)” value read?
**A.** ++ (two plus signs (++) is associated with a pIC50 of from about 6 to 7)

**Q.** For O=c1cc2n(cc1O)CCN(Cc1cc([N+](=O)[O-])c(Cl)cc1Cl)C2 [Example 66, 2-[(2,4-dichloro-5-nitro-phenyl)methyl]-7-hydroxy-3,4-dihydro-1H-pyrido[1,2-a]pyrazin-8-one], which “Activity range (pIC50)” value is on record?
**A.** +++ (three plus signs (+++) is associated with a pIC50 of above about 7)

**Q.** For Cc1ccccc1C(C)N1CCn2cc(O)c(=O)cc2C1 (stereo not drawn) [Example 67, 7-hydroxy-2-[1-(2-methylphenyl)ethyl]-1,2,3,4-tetrahydro-8H-pyrido[1,2-a]pyrazin-8-one], which “Activity range (pIC50)” value is on record?
**A.** +++ (three plus signs (+++) is associated with a pIC50 of above about 7)

**Q.** How did the “Activity range (pIC50)” value turn out when CC(c1ccc(Cl)cc1)N1CCn2cc(O)c(=O)cc2C1 (stereo not drawn) [Example 68, 2-[1-(4-chlorophenyl)ethyl]-7-hydroxy-1,2,3,4-tetrahydro-8H-pyrido[1,2-a]pyrazin-8-one] was run?
**A.** ++ (two plus signs (++) is associated with a pIC50 of from about 6 to 7)

**Q.** How did the “Activity range (pIC50)” value turn out when CC(c1cc(Cl)ccc1Cl)N1CCn2cc(O)c(=O)cc2C1 (stereo not drawn) [Example 69, 2-[1-(2,5-dichlorophenyl)ethyl]-7-hydroxy-1,2,3,4-tetrahydro-8H-pyrido[1,2-a]pyrazin-8-one] was run?
**A.** +++ (three plus signs (+++) is associated with a pIC50 of above about 7)

**Q.** CC(c1ccc(C(F)(F)F)cc1)N1CCn2cc(O)c(=O)cc2C1 (stereo not drawn) [Example 70, 7-hydroxy-2-{1-[4-(trifluoromethyl)phenyl]ethyl}-1,2,3,4-tetrahydro-8H-pyrido[1,2-a]pyrazin-8-one] was tested. Which “Activity range (pIC50)” value did it give?
**A.** ++ (two plus signs (++) is associated with a pIC50 of from about 6 to 7)

**Q.** Cc1cccc(C(C)N2CCn3cc(O)c(=O)cc3C2)c1 (stereo not drawn) [Example 71, 7-hydroxy-2-[1-(3-methylphenyl)ethyl]-1,2,3,4-tetrahydro-8H-pyrido[1,2-a]pyrazin-8-one] was tested. Which “Activity range (pIC50)” value did it give?
**A.** ++ (two plus signs (++) is associated with a pIC50 of from about 6 to 7)

**Q.** CC(c1cccc(Cl)c1)N1CCn2cc(O)c(=O)cc2C1 (stereo not drawn) [Example 72, 2-[1-(3-chlorophenyl)ethyl]-7-hydroxy-1,2,3,4-tetrahydro-8H-pyrido[1,2-a]pyrazin-8-one] was tested. Which “Activity range (pIC50)” value did it give?
**A.** ++ (two plus signs (++) is associated with a pIC50 of from about 6 to 7)

**Q.** How did the “Activity range (pIC50)” value turn out when O=c1cc2n(cc1O)CCN(C1CCc3c(Cl)cccc31)C2 (stereo not drawn) [Example 73, 2-(4-chloro-2,3-dihydro-1H-inden-1-yl)-7-hydroxy-1,2,3,4-tetrahydro-8H-pyrido[1,2-a]pyrazin-8-one] was run?
**A.** +++ (three plus signs (+++) is associated with a pIC50 of above about 7)

**Q.** For COc1cccc(OC)c1C(C)N1CCn2cc(O)c(=O)cc2C1 (stereo not drawn) [Example 74, 2-[1-(2,6-dimethoxyphenyl)ethyl]-7-hydroxy-1,2,3,4-tetrahydro-8H-pyrido[1,2-a]pyrazin-8-one], which “Activity range (pIC50)” value is on record?
**A.** ++ (two plus signs (++) is associated with a pIC50 of from about 6 to 7)
